The source of these data is patent US11679097B2, “Combination product containing limonoid compound and biguanide compound” (ZHEJIANG YANGSHENGTANG INSTITUTE OF NATURAL MEDICATION CO., …, priority 2017, dated 2023).

What all share (assay type): in vivo
Experiment [1] deals with STZ mice. Description: Blood glucose in mouse model of type II diabetes with pancreatic islet damage and obesity (Example 5). To be noted: high-fat diet + STZ ICR mice; single administration 0.5 g/kg per day by gavage, three weeks. As to the method:
(§1) It should be noted that the conditions for raising the mice were as follows: the temperature was 23±1° C., the humidity was 55±10%, the lights were turned on between 7 am and 7 pm (the lights were turned off at other time), and the mice were allowed to access to water and feed freely. The experimental feed was mouse growth-stable feed (GB M2118), and the daily feeding and management of the animals were under the responsibility of the animal security department, which provided the animals with sufficient padding and fresh drinking water daily.
SPSS 16.0 software was used for statistical analysis.

Experiment [2] concerns STZ mice. Description: Blood glucose in mouse pancreatic islet β-cell injury model (Example 3). To be noted: STZ ICR mice; single administration 0.1 g/kg per day by gavage, two weeks; 1 h after last administration. An excerpt:
Effects of a Limonoid Compound, Metformin or a Combination Thereof on Blood Glucose in a Mouse Pancreatic Islet β-Cell Injury Model In this example, a mouse pancreatic islet β-cell injury model was established by modeling ICR mice with streptozotocin (STZ) (referred to the prior art literature: Li Nan et al., Protective effect of pine pollen on kidney damage in diabetic nephropathy mice, Science and Technology Review, 2014, 32 (4/5): 95-99), and used to complete the evaluation of hypoglycemic effect in animals (this model could simulate pancreatic islet β-cell damage state of type I and type II diabetics). […] Conditions of experimental feeding: ICR mice (20±2 g), aged 6 weeks, purchased from Zhejiang Academy of Medical Sciences, and subjected to experimental feeding after 7 days of preliminary feeding. […] The experimental feed was mouse growth-stable feed (GB […]), and the daily feeding and management of the animals were under the responsibility of the animal security department, which provided the animals with sufficient padding and fresh drinking water daily. Experimental grouping: 15 male mice were randomly selected as the normal control group. […] Gavage doses: the gavage dose was 0.1 g/kg per day for the […] group, the gavage dose was 0.1 g/kg per day for the […] group, the gavage dose was 0.1 g/kg per day for the […]-glucopyranoside group, the gavage dose of metformin was 0.1 g/kg per day for the metformin group, […] dose of 0.05 g/kg and metformin at a dose of 0.05 g/kg were simultaneously gavaged per day for the […]/metformin combination group, […] dose of 0.05 g/kg and metformin at a dose of 0.05 g/kg were simultaneously gavaged per day for the […]/metformin combination group, […]-glucopyranoside at a dose of 0.05 g/kg and metformin at a dose of 0.05 g/kg were simultaneously gavaged per day for the […]-glucopyranoside/metformin combination group, the gavage volume was 10 mL/kg, and the normal group and the model group were administrated with 10 mL/kg of distilled water. […] SPSS 16.0 software was used for statistical analysis. The data were expressed as mean and standard deviation. The data before and after were analyzed by t-test, and P<0.05 was considered statistically significant.

In another experiment the test system is db/db mice. The experiment in a line: Blood glucose and insulin in mouse model of type II diabetes (Example 4). To be noted: single administration 0.2 g/kg per day by gavage, two weeks.
Source text: Effects of a Limonoid Compound, Metformin or a Combination Thereof on Blood Glucose and Insulin in a Mouse Model of Type II Diabetes
In the present embodiment, the limonoid compound selected nomilin, deacetylnomilin, nomilin acid, deactylnomilin 17-β-D-glucopyranoside, and a nomilin single administration group, deacetylnomilin single administration group, nomilin acid single administered group, deactylnomilin 17-β-D-glucopyranoside single administration group, and combination thereof with metformin administration groups were set, respectively.
as §1, with “Conditions for experimental feeding: as type II diabetes model mice, 6-week-old SPF-grade db/db mice were purchased from the Nanjing Model Biology Institute, and subjected to experimental feeding after 7 days of preliminary feeding. It” for “It”
Experimental grouping: male db/db mice (20±2 g) were selected, 18 male mice in each group were tested, and drinking bottles were sterilized weekly. The experimental groups included the normal control group (db/m, n=18), the model group (db/db, n=18), the nomilin group (db/db, n=18), the deacetylnomilin group (db/db, n=18), the nomilin acid group (db/db, n=18), the deactylnomilin 17-β-D-glucopyranoside group (db/db, n=18), the metformin group (db/db, n=18), the nomilin/metformin combination group (db/db, n=18), the deacetylnomilin/metformin combination group (db/db, n=18), the nomilin acid/metformin combination group (db/db, n=18), the deactylnomilin 17-β-D-glucopyranoside/combination group (db/db, n=18).
Gavage doses: nomilin at a dose of 0.2 g/kg was gavaged per day for the nomilin group, deacetylnomilin at a dose of 0.2 g/kg was gavaged per day for the deacetylnomilin group, nomilin acid at a dose of 0.2 g/kg was gavaged per day for the nomilin acid group, deacetylnomilin […] at a dose of 0.2 g/kg was gavaged per day for the deactylnomilin glucopyranoside group, metformin at a dose of 0.2 g/kg was gavaged per day for the metformin group, nomilin at a dose of 0.1 g/kg and metformin at a dose of 0.1 g/kg were simultaneously gavaged per day for the nomilin/metformin combination group, nomilin acid at a dose of 0.1 g/kg and metformin at a dose of 0.1 g/kg were simultaneously gavaged per day for the nomilin acid/metformin combination group, deacetylnomilin at a dose of 0.1 g/kg and metformin at a dose of 0.1 g/kg were simultaneously gavaged per day for the deacetylnomilin/metformin combination group, deactylnomilin 17-β-D-glucopyranoside at a dose of 0.1 g/kg and metformin at a dose of 0.1 g/kg were simultaneously gavaged per day for the deactylnomilin 17-β-D-glucopyranoside/metformin combination group, the gavage volume was 10 mL/kg, and the normal group and the model group were administrated with 10 mL/kg of distilled water. Two weeks later, the blood glucose values were measured by tail trimming method (Johnson's blood glucose meter) 1 h after the last administration, and serum insulin levels were measured with blood collected from orbital cavity by enzyme-linked immunosorbent assay (Elisa), and the average of each group was obtained. SPSS 16.0 software was used for statistical analysis. The data were expressed as mean and standard deviation. The data before and after were analyzed by t-test, and P<0.05 was considered statistically significant.

Turning to nomilinic acid 17-β-D-glucopyranoside, in the experiment on STZ mice [1], the Blood glucose value came to 13.5 ± 2.4 mmol/L.
The same measure, in the same setting: with nomilin 17-β-D-glucopyranoside the figure was 12.8 ± 2.9 mmol/L.
`CC1(C)O[C@](C)(O)[C@]2(C)[C@H]3CC[C@@]4(C)[C@H](c5ccoc5)OC(=O)[C@H]5O[C@]54[C@]3(C)C(=O)C[C@@H]12` [Ichangensin, ichangensin]: the Blood glucose value in the experiment on STZ mice [2] is 14.5 ± 3.5 mmol/L.
For the compound ichangin 17-β-D-glucopyranoside, in the experiment with STZ mice [2], the Blood glucose value came to 14.9 ± 2.1 mmol/L.
As to deactylnomilin 17-β-D-glucopyranoside, in the experiment on db/db mice (serum, Elisa), the Insulin is 8.40 ± 3.27 pg/mL. Also, the figures for the Blood glucose value in the experiment on db/db mice (1 h after last administration) and in the experiment with STZ mice [1] were 12.8 ± 5.5 mmol/L and 12.7 ± 2.5 mmol/L, respectively.
In the case of `CC(C)(O)[C@@H]1CC(=O)[C@]2(C)[C@H](CC[C@@]3(C)[C@H](c4ccoc4)OC(=O)[C@H]4O[C@]432)[C@]12COC(=O)C[C@@H]2O` [Ichangin, ichangin], the Blood glucose value in the experiment with STZ mice [2] stood at 14.8 ± 1.9 mmol/L.
